According to patent publication US4057636A, “Antihypertensive pyridylguanidine compounds” (Leo Pharmaceutical Products Ltd. A/S, priority 1974, dated 1977):

Tests used:
in vivo = conditions: mouse
[1] = tested on: conscious spontaneously hypertensive rats; assay: Antihypertensive activity in conscious spontaneously hypertensive rats; assay type: in vivo, rat (spontaneously hypertensive Okamoto strain)
Description: Male albino rats, spontaneously hypertensive Okamoto strain, fasting 16 hours before the experiments were used. The conscious animals were restrained in a plastic cage and a cuff was secured around the tail. The cuff was connected with an electronic blood pressure recorder. The systolic blood pressure and the heart rate were measured before and 2, 4, 6, and 24 hours after the administration of compounds. The compounds were suspended or dissolved in carboxymethylcellulose 0.5%. […] There are also included, for comparison, the results obtained under the same experimental conditions with some known antihypertensive drugs, and the approximate oral LD50 in mice are stated.

[2] = tested on: conscious normotensive dogs; assay: Hypotensive activity in conscious normotensive dogs; assay type: in vivo, dog (mongrel); conditions: 0.1 mg/kg oral
Description: Hypotensive activity in conscious normotensive dogs
Mongrel dogs of both sexes, fasting 16 hours before the experiment were used. […] The compounds were orally administered in gelatine capsules.

With `NNc1nncc2ccccc12` [Hydralazine, reference compound] the LD50 (in vivo; mice, oral, printed with (114-130)) was 122 mg/kg, the BP ([1]; 2.0 mg/kg, 2 hours) was 162 mm Hg and the HR ([1]; 2.0 mg/kg, 2 hours) was 425 beats/minute. For the same molecule, the BP ([1]; 2.0 mg/kg, 4 hours) was 163 mm Hg, the HR ([1]; 2.0 mg/kg, 4 hours) was 413 beats/minute and the BP ([1]; 2.0 mg/kg, 24 hours) was 174 mm Hg. The HR ([1]; 2.0 mg/kg, 24 hours) was 379 beats/minute, the BP ([1]; 5.0 mg/kg, 2 hours) was 150 mm Hg and the HR ([1]; 5.0 mg/kg, 2 hours) was 405 beats/minute. The BP ([1]; 5.0 mg/kg, 4 hours) was 152 mm Hg, the HR ([1]; 5.0 mg/kg, 4 hours) was 410 beats/minute and the BP ([1]; 5.0 mg/kg, 24 hours) was 170 mm Hg. For the same molecule, the HR ([1]; 5.0 mg/kg, 24 hours) was 380 beats/minute.

Molecule `N=c1nc(N2CCCCC2)cc(N)n1O` [Minoxidil, 6-Amino-1,2-dihydro-1-hydroxy-2-imino-4-piperid-1-ylpyrimidine, reference compound] has a BP ([1]; 0.5 mg/kg, 2 hours) of 161 mm Hg, an HR ([1]; 0.5 mg/kg, 2 hours) of 409 beats/minute and a BP ([1]; 0.5 mg/kg, 4 hours) of 153 mm Hg. The HR ([1]; 0.5 mg/kg, 4 hours) was 411 beats/minute, the BP ([1]; 0.5 mg/kg, 24 hours) was 167 mm Hg and the HR ([1]; 0.5 mg/kg, 24 hours) was 400 beats/minute. For the same molecule, the BP ([1]; 1.0 mg/kg, 2 hours) was 158 mm Hg, the HR ([1]; 1.0 mg/kg, 2 hours) was 431 beats/minute and the BP ([1]; 1.0 mg/kg, 4 hours) was 146 mm Hg. It also gave an HR ([1]; 1.0 mg/kg, 4 hours) of 424 beats/minute, a BP ([1]; 1.0 mg/kg, 24 hours) of 169 mm Hg and an HR ([1]; 1.0 mg/kg, 24 hours) of 407 beats/minute.

Work on `CCC(C)(CC)NC(=NC#N)Nc1cccnc1` [P 1066, N"-cyano-N-(1-ethyl-1-methylpropyl)-N'-3-pyridylguanidine] yielded an LD50 (in vivo; po, p.o. (mice), approximate) greater than 1000 mg/kg, a BP ([1]; 0.05 mg/kg, 2 hours) of 155 mm Hg and an HR ([1]; 0.05 mg/kg, 2 hours) of 462 beats/minute. The BP ([1]; 0.05 mg/kg, 4 hours) was 170 mm Hg, the HR ([1]; 0.05 mg/kg, 4 hours) was 417 beats/minute and the BP ([1]; 0.05 mg/kg, 24 hours) was 178 mm Hg. For the same molecule, the HR ([1]; 0.05 mg/kg, 24 hours) was 413 beats/minute, the BP ([1]; 0.5 mg/kg, 2 hours) was 146 mm Hg and the HR ([1]; 0.5 mg/kg, 2 hours) was 437 beats/minute. It also gave a BP ([1]; 0.5 mg/kg, 4 hours) of 143 mm Hg, an HR ([1]; 0.5 mg/kg, 4 hours) of 413 beats/minute and a BP ([1]; 0.5 mg/kg, 24 hours) of 181 mm Hg. For the same molecule, the HR ([1]; 0.5 mg/kg, 24 hours) was 413 beats/minute, the BP ([1]; 2.5 mg/kg, 2 hours) was 113 mm Hg and the HR ([1]; 2.5 mg/kg, 2 hours) was 386 beats/minute. For the same molecule, the BP ([1]; 2.5 mg/kg, 4 hours) was 100 mm Hg, the BP ([1]; 2.5 mg/kg, 6 hours) was 114 mm Hg and the HR ([1]; 2.5 mg/kg, 6 hours) was 375 beats/minute. The BP ([1]; 2.5 mg/kg, 24 hours) was 152 mm Hg, the HR ([1]; 2.5 mg/kg, 24 hours) was 335 beats/minute and the BP ([1]; 10.0 mg/kg, 2 hours) was less than 100 mm Hg. The BP ([1]; 10.0 mg/kg, 4 hours) was less than 100 mm Hg, the BP ([1]; 10.0 mg/kg, 6 hours) was less than 100 mm Hg and the BP ([1]; 10.0 mg/kg, 24 hours) was 126 mm Hg. For the same molecule, the HR ([1]; 10.0 mg/kg, 24 hours) was 336 beats/minute.

Work on `CCCC(C)(C)NC(=NC#N)Nc1cccnc1` [P 1067, N"-cyano-N-(1,1-dimethylbutyl)-N'-3-pyridylcuanidine] yielded an LD50 (in vivo; po) greater than 1000 mg/kg, a BP ([1]; 0.5 mg/kg, 2 hours) of 158 mm Hg and an HR ([1]; 0.5 mg/kg, 2 hours) of 440 beats/minute. For the same molecule, the BP ([1]; 0.5 mg/kg, 4 hours) was 168 mm Hg, the HR ([1]; 0.5 mg/kg, 4 hours) was 413 beats/minute and the BP ([1]; 0.5 mg/kg, 24 hours) was 176 mm Hg. It also gave an HR ([1]; 0.5 mg/kg, 24 hours) of 408 beats/minute.

For `CCC(CC)(CC)NC(=NC#N)Nc1cccnc1` [P 1068, N"-cyano-N-(1,1-diethylpropyl)-N'-3-pyridylguanidine], the LD50 (in vivo; po, p.o. (mice), approximate) was greater than 1000 mg/kg, the BP ([1]; 0.5 mg/kg, 2 hours) was 131 mm Hg and the HR ([1]; 0.5 mg/kg, 2 hours) was 473 beats/minute. For the same molecule, the BP ([1]; 0.5 mg/kg, 4 hours) was 146 mm Hg, the HR ([1]; 0.5 mg/kg, 4 hours) was 437 beats/minute and the BP ([1]; 0.5 mg/kg, 24 hours) was 180 mm Hg. It also gave an HR ([1]; 0.5 mg/kg, 24 hours) of 383 beats/minute.

`CCC(C)(C)NC(=NC#N)Nc1cccnc1` [P 1075, N"-cyano-N-tert-pentyl-N'-3-pyridylguanidine] gave a BP ([2]; Dog I, 1 hour) of 72 mm Hg, an HR ([2]; Dog I, 1 hour) of 160 beats/minute and a BP ([2]; Dog I, 2 hours) of 75 mm Hg. The HR ([2]; Dog I, 2 hours) was 180 beats/minute, the BP ([2]; Dog I, 3 hours) was 85 mm Hg and the HR ([2]; Dog I, 3 hours) was 142 beats/minute. The BP ([2]; Dog I, 4 hours) was 95 mm Hg, the HR ([2]; Dog I, 4 hours) was 135 beats/minute and the BP ([2]; Dog II, 1 hour) was 82 mm Hg. It also gave an HR ([2]; Dog II, 1 hour) of 175 beats/minute, a BP ([2]; Dog II, 2 hours) of 74 mm Hg and an HR ([2]; Dog II, 2 hours) of 185 beats/minute. The BP ([2]; Dog II, 3 hours) was 92 mm Hg, the HR ([2]; Dog II, 3 hours) was 163 beats/minute and the BP ([2]; Dog II, 4 hours) was 115 mm Hg. It also gave an HR ([2]; Dog II, 4 hours) of 140 beats/minute, a BP ([2]; Dog III, 1 hour) of 95 mm Hg and an HR ([2]; Dog III, 1 hour) of 185 beats/minute. It also gave a BP ([2]; Dog III, 2 hours) of 90 mm Hg, an HR ([2]; Dog III, 2 hours) of 175 beats/minute and a BP ([2]; Dog III, 3 hours) of 104 mm Hg. The HR ([2]; Dog III, 3 hours) was 149 beats/minute, the BP ([2]; Dog III, 4 hours) was 110 mm Hg and the HR ([2]; Dog III, 4 hours) was 140 beats/minute. For the same molecule, the LD50 (in vivo; po, p.o. (mice), approximate) was 1000 mg/kg, the BP ([1]; 0.05 mg/kg, 2 hours) was 105 mm Hg and the HR ([1]; 0.05 mg/kg, 2 hours) was 450 beats/minute. For the same molecule, the BP ([1]; 0.05 mg/kg, 4 hours) was 102 mm Hg, the HR ([1]; 0.05 mg/kg, 4 hours) was 432 beats/minute and the BP ([1]; 0.05 mg/kg, 24 hours) was 164 mm Hg. It also gave an HR ([1]; 0.05 mg/kg, 24 hours) of 348 beats/minute.
